Laboratory results published in patent US8143068B2, “Oxidation resistant indicator molecules” (Sensors for Medicine and Science, Inc., priority 2006, dated 2012).
Like-named read-outs stand apart in the source and are kept apart here.

Legend:
[1] = Stability of indicator gels towards oxidant: 1 mM hydrogen peroxide in PBS at 37° C.; assay type: physicochemical; conditions: indicator gel
Description: Several compounds of the present invention were each copolymerized with hydroxyethyl methacrylate (HEMA), acrylic acid and ethylene glycol dimethacrylate (EGDMA) to form water insoluble polymer gels, as in Example 3. Their stability towards oxidant was assessed by subjecting the gels to 1 mM hydrogen peroxide in PBS at 37° C. […] In a further experiment, the fluorescent change (% modulation) from 0 to 20 mM glucose of various indicator gels was measured and the results are shown in FIG. 8.

[2] = Modulation of fluorescence by varying concentrations of glucose (Example 1, FIG. 1)
Description: The modulation of the fluorescence of various molecules (depicted in FIG. 5) by varying concentrations of glucose was determined. […] In a further experiment, the unsubstituted control and two compounds of the present invention (4-trifluoromethyl and 3,4-difluoro) were subjected to oxidation treatment with 1 mM hydrogen peroxide, and the loss of fluorescence intensity was measured.

[3] = Fluorescence and glucose response of indicator gels (Table 1); assay type: binding; conditions: indicator gel; for Kd: 37° C.
[4] = Long term exposure of indicator gels to 10 μM hydrogen peroxide and 4 mM glucose/PBS at 37° C., loss of fluorescence intensity; assay type: physicochemical; conditions: indicator gel
Description: Several gels (produced as in Example 3) containing compounds of the present invention (4-trifluoromethyl, 3,4-difluoro and 4-fluoro) and a control (unsubstituted) were subjected to long term exposure to 10 μM hydrogen peroxide and 4 mM glucose/PBS at 37° C., and the loss of fluorescence intensity was measured.
Two compounds according to the present invention (4-trifluoromethyl and 3,4-difluoro) and the unsubstituted control were each copolymerized with hydroxyethyl methacrylate (HEMA) and acrylic acid, and crosslinked with ethylene glycol dimethacrylate (EGDMA) to form a water insoluble polymer graft, which was then implanted into a rat to be subjected to in vivo oxidation for 22 or 43 days.

[5] = aqueous association with glucose; cited from earlier work
[6] = Stability of indicator gels in 1 mM hydrogen peroxide in the presence of 4 mM glucose in PBS at 37° C.; assay type: physicochemical; conditions: indicator gel
Description: Several compounds of the present invention were each copolymerized with hydroxyethyl methacrylate (HEMA), acrylic acid and ethylene glycol dimethacrylate (EGDMA) to form water insoluble polymer gels, as in Example 3. Their stability towards oxidant was assessed by subjecting the gels to 1 mM hydrogen peroxide in PBS at 37° C. In a further experiment, two of the indicator gels (the 4-trifluoromethyl and 4-trifluoromethylsulfone gels) were subjected to 1 mM hydrogen peroxide in the presence of 4 mM glucose in PBS at 37° C. In a further experiment, the fluorescent change (% modulation) from 0 to 20 mM glucose of various indicator gels was measured and the results are shown in FIG. 8.

C=C(C)C(=O)NCCCN(Cc1ccc(F)cc1B1OC(C)(C)C(C)(C)O1)Cc1c2ccccc2c(CN(CCC(=O)[O-])Cc2ccc(F)cc2B2OC(C)(C)C(C)(C)O2)c2ccccc12.[Na+] [Indicator 5-Fluoro, 9-[N-[2-(4,4,5,5,-tetramethyl-1,3,2-dioxaborolano)-4-fluorobenzyl]-N-[3-(methacrylamido)propylamino]methyl]-10-[N-[2-(4,4,5,5,-tetramethyl-1,3,2-dioxaborolano)-4-fluorobenzyl]-N-[2-(carboxyethyl)amino]methyl]anthracene sodium salt]
t 1/2 [1]: 6 min

C=C(C)C(=O)NCCCN(Cc1cc([N+](=O)[O-])ccc1B1OC(C)(C)C(C)(C)O1)Cc1c2ccccc2c(CN(CCC(=O)[O-])Cc2cc([N+](=O)[O-])ccc2B2OC(C)(C)C(C)(C)O2)c2ccccc12.[Na+] [Indicator 4-Nitro, 9-[N-[6-(4,4,5,5,-tetramethyl-1,3,2-dioxaborolano)-3-nitrobenzyl]-N-[3-(methacrylamido)propylamino]methyl]-10-[N-[6-(4,4,5,5,-tetramethyl-1,3,2-dioxaborolano)-3-nitrobenzyl]-N-[2-(carboxyethyl)amino]methyl]anthracene sodium salt]
modulation of the fluorescence by glucose [2]: did not modulate well

9-[N-[6-(4,4,5,5,-tetramethyl-1,3,2-dioxaborolano)-2,3-difluorobenzyl]-N-[3-(methacrylamido)propylamino]methyl]-10-[N-[6-(4,4,5,5,-tetramethyl-1,3,2-dioxaborolano)-2,3-difluorobenzyl]-N-[2-(carboxyethyl)amino]methyl]anthracene sodium salt [3,4-Difluoro]
AVERAGE % MODULATION (0 to 20 mM glucose) [3]: 137% | Kd [3]: 30.9 mM | HALF LIFE (days) at 37° C. in 4 mM glucose and 10 μM H2O2 [4]: 33 days | t 1/2 [1]: 13 min

9-[N-[6-(4,4,5,5,-tetramethyl-1,3,2-dioxaborolano)-2,4-(dichloro)benzyl]-N-[3-(methacrylamido)propylamino]methyl]-10-[N-[6-(4,4,5,5,-tetramethyl-1,3,2-dioxaborolano)-2,4-(dichloro)benzyl]-N-[2-(carboxyethyl)amino]-methyl]anthracene sodium salt [3,5-Dichloro]
t 1/2 [1]: 22 min

9-[N-[6-(4,4,5,5,-tetramethyl-1,3,2-dioxaborolano)-3-fluorobenzyl]-N-[3-(methacrylamido)propylamino]methyl]-10-[N-[6-(4,4,5,5,-tetramethyl-1,3,2-dioxaborolano)-3-fluorobenzyl]-N-[2-(carboxyethyl)amino]methyl]anthracene sodium salt [Indicator 4-Fluoro]
t 1/2 [1]: 13 min

9-[N-[6-(4,4,5,5,-tetramethyl-1,3,2-dioxaborolano)-3-cyanobenzyl]-N-[3-(methacrylamido)propylamino]methyl]-10-[N-[6-(4,4,5,5,-tetramethyl-1,3,2-dioxaborolano)-3-cyanobenzyl]-N-[2-(carboxyethyl)amino]methyl]anthracene sodium salt [Indicator 4-Cyano]
t 1/2 [1]: 18 min

9-[N-[2-(4,4,5,5,-tetramethyl-1,3,2-dioxaborolano)-4-(trifluoromethyl)benzyl]-N-[3-(methacrylamido)propylamino]methyl]-10-[N-[2-(4,4,5,5-tetra-methyl-1,3,2-dioxaborolano)-4-(trifluoromethyl)benzyl]-N-[2-(carboxyethyl)amino]methyl]-anthracene sodium salt [5-Trifluoromethyl]
t 1/2 [1]: 24 min

OB(O)c1ccccc1 [phenylboronic acid]
Kd [5]: 9.1 mM

9-[N-[6-(4,4,5,5,-tetramethyl-1,3,2-dioxaborolano)-3-(trifluoromethyl)benzyl]-N-[3-(methacrylamido)propylamino]methyl]-10-[N-[6-(4,4,5,5,-tetramethyl-1,3,2-dioxaborolano)-3-(trifluoromethyl)benzyl]-N-[2-(carboxyethyl)amino]methyl]anthracene sodium salt [4-Trifluoromethyl]
AVERAGE % MODULATION (0 to 20 mM glucose) [3]: 191% | Kd [3]: 12.2 mM | HALF LIFE (days) at 37° C. in 4 mM glucose and 10 μM H2O2 [4]: 26 days | t 1/2 [1]: 17 min | t 1/2 (minutes), in 4 mM Glucose Solution [6]: 30 min

9-[N-[6-(4,4,5,5,-tetramethyl-1,3,2-dioxaborolano)-2,3-dichlorobenzyl]-N-[3-(methacrylamido)propylamino]methyl]-10-[N-[6-(4,4,5,5,-tetramethyl-1,3,2-dioxaborolano)-2,3-dichlorobenzyl]-N-[2-(carboxyethyl)amino]methyl]anthracene sodium salt [3,4-Dichloro]
t 1/2 [1]: 32 min

C=C(C)C(=O)NCCCN(Cc1cc(OC(F)(F)F)ccc1B1OC(C)(C)C(C)(C)O1)Cc1c2ccccc2c(CN(CCC(=O)[O-])Cc2cc(OC(F)(F)F)ccc2B2OC(C)(C)C(C)(C)O2)c2ccccc12.[Na+] [4-Trifluoromethoxy, 9-[N-[6-(4,4,5,5,-tetramethyl-1,3,2-dioxaborolano)-3-(trifluoromethoxy)benzyl]-N-[3-(methacrylamido)propylamino]methyl]-10-[N-[6-(4,4,5,5-tetra-methyl-1,3,2-dioxaborolano)-3-(trifluoromethoxy)benzyl]-N-[2-(carboxyethyl)amino]methyl]-anthracene sodium salt]
t 1/2 [1]: 24 min

9-[N-[6-(4,4,5,5,-tetramethyl-1,3,2-dioxaborolano)-2,4-bis(trifluoromethyl)benzyl]-N-[3-(methacrylamido)propylamino]methyl]-10-[N-[6-(4,4,5,5,-tetramethyl-1,3,2-dioxaborolano)-2,4-bis(trifluoromethyl)benzyl]-N-[2-(carboxyethyl)amino]-methyl]anthracene sodium salt [3,5-Bis(trifluoromethyl)]
t 1/2 [1]: 495 min

9-[N-[2-(4,4,5,5,-tetramethyl-1,3,2-dioxaborolano)-3-methylbenzyl]-N-[3-(methacrylamido)propylamino]methyl]-10-[N-[2-(4,4,5,5,-tetramethyl-1,3,2-dioxaborolano)-3-methylbenzyl]-N-[2-(carboxyethyl)amino]methyl]anthracene [Indicator 2-Methyl]
modulation of the fluorescence by glucose [2]: did not modulate well
